Results on 22 compounds are retold here after US8759535B2, “Substituted fused imidazole derivatives, pharmaceutical compositions, and methods of use thereof” (High Point Pharmaceuticals, LLC, priority 2010, dated 2014).

As usually defined, the fold induction is the ratio of treated to control signal. A lower fold induction goes with a weak induction.

The test relates to HMOX1. The experiment in a line: HMOX1 Protein Assay (immunostaining of HO-1 in NHLF cells, GE InCell 1000). The class given is cell-based. Particulars: Homo sapiens, fold change above DMSO treated cells, 16 h; for fold induction at 3 µM: 3 μM compound (asterisk); for fold induction at 5 µM: 5 μM compound. The procedure, abridged:
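Fold induction of HO-1 over vehicle, normally at 5 μM compound (asterisk marks 3 μM), in 0.8% DMSO medium. Normal human lung fibroblasts were treated 16 h, then paraformaldehyde-fixed, anti-HO-1/Alexa 488 stained with Hoechst, and read by high-content imaging.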

Take `C[C@@H](NC(=O)c1ccc2c(c1)nc(Nc1nc3ccc(Cl)cc3s1)n2C)C(=O)N1CCN(C)CC1` [Example 469, 2-(6-Chloro-benzothiazol-2-ylamino)-1-methyl-1H-benzoimidazole-5-carboxylic acid [(R)-1-methyl-2-(4-methyl-piperazin-1-yl)-2-oxo-ethyl]-amide]: the fold induction at 3 µM stood at 26.1.

On to `CNC(=O)CNC(=O)c1ccc2c(c1)nc(Nc1nc3ccc(C(F)(F)F)cc3s1)n2C` [Example 381, 1-Methyl-2-(6-trifluoromethyl-benzothiazol-2-ylamino)-1H-benzoimidazole-5-carboxylic acid methylcarbamoylmethyl-amide], for which the fold induction at 3 µM is 28.2. `CN(C)C(=O)[C@H](CO)NC(=O)c1ccc2c(c1)nc(Nc1nc3ccc(OC(F)(F)F)cc3s1)n2C` [Example 368, 1-Methyl-2-(6-trifluoromethoxy-benzothiazol-2-ylamino)-1H-benzoimidazole-5-carboxylic acid ((S)-1-dimethylcarbamoyl-2-hydroxy-ethyl)-amide] showed a fold induction at 5 µM of 48. In turn, `C[C@@H](O)CNC(=O)c1ccc2c(c1)nc(Nc1nc3ccc(Cl)cc3s1)n2C` [Example 203, 2-(6-Chloro-benzothiazol-2-ylamino)-1-methyl-1H-benzoimidazole-5-carboxylic acid ((R)-2-hydroxy-propyl)-amide] displayed a fold induction at 3 µM of 18.7. Turning to `Cn1c(Nc2nc3ccc(OC(F)(F)F)cc3s2)nc2cc(C(=O)NC[C@H]3CC[C@H](O)CC3)ccc21` [Example 232, 1-Methyl-2-(6-trifluoromethoxy-benzothiazol-2-ylamino)-1H-benzoimidazole-5-carboxylic acid (trans-4-hydroxy-cyclohexylmethyl)-amide], the fold induction at 5 µM was found to be 33. Still for that read-out and setting: the result for `COC(=O)c1ccc2c(c1)nc(Nc1nc3ccc(OC(F)(F)F)cc3s1)n2C` [Example 2, 1-Methyl-2-(6-trifluoromethoxy-benzothiazol-2-ylamino)-1H-benzoimidazole-5-carboxylic acid methyl ester] reads 6.51.

As for `CCOCCNC(=O)c1cnc2c(c1)nc(Nc1nc3ccc(OC(F)(F)F)cc3s1)n2C` [Example 75, 3-Methyl-2-(6-trifluoromethoxy-benzothiazol-2-ylamino)-3H-imidazo[-4,5-b]pyridine-6-carboxylic acid (2-ethoxy-ethyl)-amide], the fold induction at 5 µM worked out at 29. Still for that read-out and setting: the result for `CCn1c(Nc2nc3ccc(Cl)cc3s2)nc2cc(C(=O)NCCF)ccc21` [Example 176, 2-(6-Chloro-benzothiazol-2-ylamino)-1-ethyl-1H-benzoimidazole-5-carboxylic acid (2-fluoro-ethyl)-amide] reads 25.8; that for `Cn1c(Nc2nc3ccc(S(C)(=O)=O)cc3s2)nc2cc(C(=O)O)ccc21` [Example 119, 2-(6-Methanesulfonyl-benzothiazol-2-ylamino)-1-methyl-1H-benzimidazole-5-carboxylic acid], 22.1; that for `COCCn1c(Nc2nc3ccc(Cl)cc3s2)nc2cc(C(=O)NCC(=O)N(C)C)ccc21` [Example 366, 2-(6-Chloro-benzothiazol-2-ylamino)-1-(2-methoxy-ethyl)-1H-benzoimidazole-5-carboxylic acid dimethylcarbamoylmethyl-amide], 18.8. Still for that read-out and setting: the result for `COCCn1c(Nc2nc3ccc(Cl)cc3s2)nc2cc(C(=O)NCC(=O)N3CCC(CO)CC3)ccc21` [Example 443, 2-(6-Chloro-benzothiazol-2-ylamino)-1-(2-methoxy-ethyl)-1H-benzoimidazole-5-carboxylic acid [2-(4-hydroxymethyl-piperidin-1-yl)-2-oxo-ethyl]-amide] reads 39.8; that for `CNC(=O)c1ccc2c(c1)nc(Nc1nc3cc(F)c(F)cc3s1)n2C` [Example 86, 2-(5,6-Difluoro-benzothiazol-2-ylamino)-1-methyl-1H-benzoimidazole-5-carboxylic acid methylamide], 9.7. `CCn1c(Nc2nc3ccc(OC(F)(F)F)cc3s2)nc2cc(C(=O)NC)ccc21` [Example 155, 1-Ethyl-2-(6-trifluoromethoxy-benzothiazol-2-ylamino)-1H-benzoimidazole-5-carboxylic acid methylamide] yielded a fold induction at 5 µM of 24.3.

The compound `C[C@H](CO)OCCNC(=O)c1ccc2c(c1)nc(Nc1nc3ccc(Cl)cc3s1)n2C` [Example 243, 2-(6-Chloro-benzothiazol-2-ylamino)-1-methyl-1H-benzoimidazole-5-carboxylic acid [2-((R)-2-hydroxy-1-methyl-ethoxy)-ethyl]-amide] came in with a fold induction at 3 µM of 15.2. In turn, `Cn1c(Nc2nc3ccc(Cl)cc3s2)nc2cc(C(=O)NCCN3CCNC(=O)C3)ccc21` [Example 331, 2-(6-Chloro-benzothiazol-2-ylamino)-1-methyl-1H-benzoimidazole-5-carboxylic acid [2-(3-oxo-piperazin-1-yl)-ethyl]-amide] yielded a fold induction at 5 µM of 70.1.

Consider `CC(C)Cn1c(Nc2nc3ccc(OC(F)(F)F)cc3s2)nc2cc(C(=O)O)ccc21` [Example 163, 1-Isobutyl-2-(6-trifluoromethoxy-benzothiazol-2-ylamino)-1H-benzoimidazole-5-carboxylic acid], for which the fold induction at 5 µM worked out at 26.3. For the compound `Cn1c(Nc2nc3ccc(OC(F)(F)F)cc3s2)nc2cc(C#N)ccc21` [Example 194, 1-Methyl-2-(6-trifluoromethoxy-benzothiazol-2-ylamino)-1H-benzoimidazole-5-carbonitrile], the fold induction at 5 µM worked out at 6. The same measure, in the same setting: next, `Cn1c(Nc2nc3ccc(OC(F)(F)F)cc3s2)nc2cc(C(=O)NCCN3CCCCC3)ccc21` [Example 333, 1-Methyl-2-(6-trifluoromethoxy-benzothiazol-2-ylamino)-1H-benzoimidazole-5-carboxylic acid (2-piperidin-1-yl-ethyl)-amide]: 14.5. As to `C[C@H](NC(=O)c1ccc2c(c1)nc(Nc1nc3ccc(Cl)cc3s1)n2C)C(=O)N1CCOCC1` [Example 465, 2-(6-Chloro-benzothiazol-2-ylamino)-1-methyl-1H-benzoimidazole-5-carboxylic acid ((S)-1-methyl-2-morpholin-4-yl-2-oxo-ethyl)-amide], the fold induction at 3 µM was determined as 20.4. In turn, `Cn1c(Nc2nc3ccc(OC(F)(F)F)cc3s2)nc2cc(C(=O)NCC(=O)N3CCCCC3CO)ccc21` (stereo not shown) [Example 439, 1-Methyl-2-(6-trifluoromethoxy-benzothiazol-2-ylamino)-1H-benzoimidazole-5-carboxylic acid [2-(2-hydroxymethyl-piperidin-1-yl)-2-oxo-ethyl]-amide] gave a fold induction at 5 µM of 84.2. The same measure, in the same setting: next, `Cn1c(Nc2nc3ccc(OC(F)(F)F)cc3s2)nc2cc(C(=O)NCCN3CCCC(O)C3)ccc21` (stereo not shown) [Example 193, 1-Methyl-2-(6-trifluoromethoxy-benzothiazol-2-ylamino)-1H-benzoimidazole-5-carboxylic acid [2-(3-hydroxy-piperidin-1-yl)ethyl]-amide]: 11.1; `CNC(=O)c1ccc2c(c1)nc(Nc1nc3ccc(OC(F)(F)F)cc3s1)n2CC(C)C` [Example 164, 1-Isobutyl-2-(6-trifluoromethoxy-benzothiazol-2-ylamino)-1H-benzoimidazole-5-carboxylic acid methylamide]: 20.5.
